Each block holds one compound with its values, some of them ahead of it.
What was measured:
[1] = Intrinsic clearance with human hepatic microsomes; format: in vitro ADME; conditions: for metabolism with hepatic microsomes (in words): stated for hepatic microsomes from human, 8HUM and WT mice together
Protocol: (§1) Microsomes from 8HUM were prepared as described previously. Compounds were added at 0.5 μM (metabolic stability) or 5 μM (metabolite profiling) to microsomes in buffer (0.5 mg/mL protein in 50 mM potassium phosphate, pH 7.4), and reactions were initiated with the addition of excess NADPH (final concentration 0.8 mg/mL). Aliquots (50 μL) were taken immediately and at 3, 6, 9, 15, and 30 min, mixed with two volumes of acetonitrile containing internal standard (donepezil, 50 ng/mL), and kept on ice. After all samples were collected, 250 μL of 20% acetonitrile was added to each sample and samples were then centrifuged for 10 min at 3000g at ambient temperature. LC–MS/MS analysis was carried out immediately.
(§2) Microsomal incubation samples were analyzed on an Acquity UPLC system coupled to a Xevo TQS-Micro, operated using MassLynx software version 4.2 (Waters, Wilmslow, UK). […] The mass spectrometer was operated with electrospray ionization in positive mode, with a capillary voltage of 0.8 kV, a desolvation temperature of 500 °C (in vitro samples) or 600 °C (PK samples), a desolvation gas flow at 1000 L/h, a cone gas flow at 150 L/h, and a source temperature at 150 °C. Multiple reaction monitoring transitions, cone voltages, and collision energies were optimized for each compound using QuanOptimise software.
(§3) Raw LC–MS/MS data were exported to XLfit (IDBS, Woking, UK) for calculation of the exponential decay rate constant (k) from the ratio of the peak area of the test compound to the internal standard at each time point. Intrinsic clearance (CLint) was calculated by multiplying k by the incubation volume and […]. […] Lower and upper limits of quantitation were 0.011 and 0.1 mL/min/mg, respectively. Values were transferred to RStudio (Posit, Boston, MA, USA) for visualization using the ggplot2 package.

[2] = Oral pharmacokinetics in whole blood of WT mice; format: in vivo; conditions: female, mouse; for Tmax: WT, po; for blood plasma ratio: WT mice, blood and plasma samples from same animals at identical timepoints, read-out: B/P (blood-to-plasma ratio)
Protocol: (§4) Three female mice were used in each pharmacokinetic experiment. Dose levels and schedules were as described in the text. All compounds were administered as fine suspensions in a vehicle of 1% methylcellulose and 0.5% Tween80 in water at a dose volume of 5 mL/kg. Serial blood samples (10 μL) were taken from the tail vein at the time points shown, diluted into 9 volumes of Milli-Q water, and stored at −20 °C prior to bioanalysis. PK parameters were determined by noncompartmental analysis using the Phoenix WinNonlin version 8.3.1.5014 (Certara).
as §2
(§5) On the day of sample analysis, calibration standards (CSs) and quality controls (QCs) were prepared from separate compound aliquots. Compounds were dissolved in DMSO and spiked into diluted blank blood as a control matrix, prior to extraction with three volumes of acetonitrile containing the internal standard (donepezil at 5 ng/mL), in parallel with PK samples. Concentration of the drug in samples was determined by interpolation onto CS values using TargetLynx (Waters). Acceptance criteria of the bioanalytical method included a CS accuracy of ±20% of nominal (theoretical) concentration across the range of interest. […] QCs at low-, medium-, and high- concentration levels were injected throughout the analytical run, with an acceptance criterion of 66% of injected samples being within ±20% of nominal concentrations. […] Sample carryover was determined in a blank injection immediately following the injection of the top CS. Carryover was deemed accepted when the test compound response in the blank was <1% of that in the top calibration sample.

[3] = Oral pharmacokinetics in whole blood of 8HUM mice; format: in vivo, mouse; conditions: for Tmax / blood plasma ratio: female, mouse; for Tmax: 8HUM, po; for blood plasma ratio: blood and plasma samples from same animals at identical timepoints, read-out: B/P (blood-to-plasma ratio); for AUCinf higher in 8HUM than in WT mice: oral dose, 8HUM versus WT
Protocol: as §4, §2, §5

Plasmodium berghei = experiment: Short course P. berghei infection efficacy in 8HUM mice; format: in vivo, Plasmodium berghei ANKA in 8HUM mice; conditions: 8HUM infected with 0.3 × 10^6 P. berghei infected erythrocytes; single dose 7 mg/kg 24 h after infection; untreated approximately 10% after 5 days; n = 3
Protocol: Donor mice (CD-1) were intraperitoneally administered a solution containing cryopreserved erythrocytes infected with P. berghei ANKA (200 μL at approximately 4% parasitemia). […] Piperaquine (Sigma, C7874) was administered at 7 mg/kg in aqueous vehicle containing 1% (w/v) methylcellulose and 0.5% (w/v) Tween 80. Peripheral blood samples were collected daily, and parasitemia was determined as described.

[4] = Intrinsic clearance with 8HUM mouse hepatic microsomes; format: in vitro ADME
Protocol: as §1
(§6) Microsomal incubation samples were analyzed on an Acquity UPLC system coupled to a Xevo TQS-Micro, operated using MassLynx software version 4.2 (Waters, Wilmslow, UK). […]
as §3, with “Values were transferred to RStudio (Posit, Boston, MA, USA) for visualization using the ggplot2 package.” left out

[5] = Intrinsic clearance with WT mouse hepatic microsomes; format: in vitro ADME; conditions: WT mouse microsomes versus human or 8HUM
Protocol: as §1, §6
as §3, with “Values were transferred to RStudio (Posit, Boston, MA, USA) for visualization using the ggplot2 package.” left out

[6] = chloroquine and primaquine 5 mg/kg, quinine 20 mg/kg

SMILES: O=C1C(O)=C([C@H]2CC[C@H](c3ccc(Cl)cc3)CC2)C(=O)c2ccccc21 [Atovaquone, atovaquone]
metabolism with hepatic microsomes (in words) [1]: Very little metabolism

SMILES: Clc1ccc2c(N3CCN(CCCN4CCN(c5ccnc6cc(Cl)ccc56)CC4)CC3)ccnc2c1 [piperaquine]
parasitemia after treatment (Plasmodium berghei): almost undetectable levels

SMILES: CCN(CC)Cc1cc(Nc2ccnc3cc(Cl)ccc23)ccc1O [Amodiaquine, amodiaquine]
metabolism by human liver microsomes (in words) [1]: rapidly metabolized
stability in 8HUM microsomes compared with human [4]: much more stable

SMILES: CO[C@H]1O[C@@H]2O[C@@]3(C)CC[C@H]4[C@H](C)CC[C@@H]([C@H]1C)[C@@]24OO3 [Artemether, artemether]
metabolism by human liver microsomes (in words) [1]: rapidly metabolized

SMILES: CCN(CC)CCCC(C)Nc1ccnc2cc(Cl)ccc12 (centres unmarked) [Chloroquine, chloroquine]
Tmax ([2]; in vivo): 2 h
blood plasma ratio ([2]; in vivo): 3.03 ± 0.38
Tmax ([3]; in vivo): 3 ± 2.6 h
blood plasma ratio ([3]; in vivo, 8HUM mice): 3.88 ± 1.64
AUCinf higher in 8HUM than in WT mice [3, 6]: 2.8 fold
stability with WT microsomes compared with human or 8HUM microsomes [5]: less stable

SMILES: C[C@H]1[C@H](OC(=O)CCC(=O)O)O[C@@H]2O[C@@]3(C)CC[C@H]4[C@H](C)CC[C@@H]1[C@@]24OO3 [Artesunate, artesunate]
metabolism by human liver microsomes (in words) [1]: rapidly metabolized

More lines, now with the values ahead:

metabolism with hepatic microsomes (in words) [1]: Very little metabolism
SMILES: CCc1nc(N)nc(N)c1-c1ccc(Cl)cc1 [Pyrimethamine, pyrimethamine]

Tmax ([2]; whole blood): 0.3 ± 0.1 h
Tmax ([3]; whole blood): 10.7 ± 11.7 h
SMILES: C=C[C@H]1C[N@@]2CC[C@H]1C[C@H]2[C@H](O)c1ccnc2ccc(OC)cc12 [Quinine, quinine]

metabolism with hepatic microsomes (in words) [1]: Very little metabolism
SMILES: [H]/N=C(\N/C(=N/[H])Nc1ccc(Cl)cc1)NC(C)C [Proguanil, proguanil]

metabolism with hepatic microsomes (in words) [1]: Very little metabolism
SMILES: C[C@H]1c2cccc(O)c2C(=O)C2=C(O)[C@]3(O)C(=O)C(C(N)=O)=C(O)[C@@H](N(C)C)[C@@H]3[C@@H](O)[C@@H]21 [Doxycycline, doxycycline]

Tmax ([2]; in vivo): 0.6 ± 0.2 h
blood plasma ratio ([2]; in vivo): 1.05 ± 0.19
C max ([3]; 8HUM mice, whole blood, PO, chloroquine and primaquine 5 mg/kg, quinine 20 mg/kg, n = 3): 534 ± 37 ng/mL
Tmax ([3]; in vivo): 0.8 ± 0.2 h
blood plasma ratio ([3]; in vivo, 8HUM mice): 1.01 ± 0.03
AUCinf higher in 8HUM than in WT mice [3, 6]: 22 fold
stability with WT microsomes compared with human or 8HUM microsomes [5]: less stable
SMILES: COc1cc(NC(C)CCCN)c2ncccc2c1 (centres unmarked) [Primaquine, primaquine]

Tmax ([2]; whole blood): 4.7 ± 1.2 h
blood plasma ratio ([2]; whole blood and plasma, oral): 1.44 ± 0.07
metabolism with hepatic microsomes (in words) [1]: Very little metabolism
Tmax ([3]; whole blood): 7.3 ± 1.2 h
blood plasma ratio ([3]; whole blood and plasma, oral, 8HUM mice): 1.41 ± 0.16
SMILES: OC(c1cc(C(F)(F)F)nc2c(C(F)(F)F)cccc12)C1CCCCN1 (centres unmarked) [Mefloquine, mefloquine]
